Results from the supplement of paper PMC6045584.
± gives the standard deviation of the averaged measurements.

compound: CC(=O)c1c(C)c2cnc(Nc3ccc(N4CCNCC4)cn3)nc2n(C2CCCC2)c1=O; test: surviving fraction relative to DMSO-only wells; higher = less growth inhibition; settings: 100 nM; exposure time: 5 days
Method in brief: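 Lines were retained only if, across three screens, replicate Pearson r was >0.7 and median Z' was >0.3. Viability was measured as CellTiter-Glo luminescence and reported as surviving fraction relative to the median of DMSO-only wells. Readings followed 10 minutes at room temperature, after log-phase tumour cells seeded at 250–500 per well in 384-well plates had been exposed, from 24 hours after seeding, continuously for five days to inhibitors at 0.5, 1, 5, 10, 50, 100, 500 and 1000 nM.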

In the case of ZR751 BREAST, the surviving fraction is reported as 1.04 ± 0.11.

same assay, conditions: 500 nM; exposure time: 5 days

JIMT1 BREAST and LM7 BONE are within error of each other in surviving fraction: 1.05 ± 0.014 for the first, 0.999 ± 0.12 for the second.

First: LNCAP PROSTATE
Second: MDAMB134 BREAST
The surviving fraction of the first is lower: 0.961 ± 0.079 for the first, 1.28 ± 0.12 for the second.

MDAMB157 BREAST and MDAMB231 BREAST are within error of each other in surviving fraction: 1 ± 0.12 for the first, 0.905 ± 0.013 for the second.

MDAMB361 BREAST and MDAMB436 BREAST are within error of each other in surviving fraction: 0.861 ± 0.23 for the first, 0.915 ± 0.082 for the second.

MDAMB468 BREAST and MFM223 BREAST are within error of each other in surviving fraction: 1.05 ± 0.057 for the first, 1.09 ± 0.031 for the second.

Going from MG63 BONE to MHM BONE, the surviving fraction rises from 0.914 ± 0.02 to 0.966 ± 0.015.

NCIH441 LUNG and NOS1 BONE are within error of each other in surviving fraction: 1.15 ± 0.14 for the first, 1.09 ± 0.11 for the second.

NY BONE and OS25HAL BONE are the same in surviving fraction: 1.04 ± 0.049 for the first, 1.04 ± 0.054 for the second.

Compared with OSHN BONE, RDES SOFT TISSUE is higher in surviving fraction: 1.13 ± 0.02 for the first, 1.67 ± 0.18 for the second.

SCC47 HEADNECK and SCC90 HEADNECK are within error of each other in surviving fraction: 1.1 ± 0.035 for the first, 1.12 ± 0.056 for the second.

SG27 HEADNECK and SG28 HEADNECK are within error of each other in surviving fraction: 1.06 ± 0.048 for the first, 1 ± 0.058 for the second.

Going from SG31 HEADNECK to SG32 HEADNECK, the surviving fraction falls from 1.08 ± 0.13 to 0.699 ± 0.059.

SG43 HEADNECK and SIHA CERVIX are within error of each other in surviving fraction: 1.02 ± 0.12 for the first, 1.12 ± 0.15 for the second.

SJSA1 BONE and SKBR3 BREAST are within error of each other in surviving fraction: 0.922 ± 0.037 for the first, 0.82 ± 0.085 for the second.

SNU475 LIVER and SUM44 BREAST are within error of each other in surviving fraction: 1.04 ± 0.021 for the first, 1.08 ± 0.068 for the second.

SUM149.B1*.S BREAST and SUM159 BREAST are within error of each other in surviving fraction: 1.139 ± 0.011 for the first, 0.943 ± 0.27 for the second.

Going from SYO1 SYNOVIAL to T47D BREAST, the surviving fraction rises from 0.792 ± 0.061 to 1.16 ± 0.042.

First: U2OS BONE
Second: VCAP PROSTATE
The surviving fraction of the first is higher: 0.979 ± 0.032 for the first, 0.829 ± 0.11 for the second.

VP229 BREAST and YAMATO SYNOVIAL are within error of each other in surviving fraction: 0.932 ± 0.037 for the first, 0.984 ± 0.034 for the second.

ZR751 BREAST was tested, and the surviving fraction was 1.23 ± 0.12.

same assay, conditions: 1000 nM; exposure time: 5 days

JIMT1 BREAST and LM7 BONE are within error of each other in surviving fraction: 1.01 ± 0.032 for the first, 1.02 ± 0.0049 for the second.

Going from LNCAP PROSTATE to MDAMB134 BREAST, the surviving fraction rises from 0.945 ± 0.16 to 1.25 ± 0.11.

MDAMB157 BREAST and MDAMB231 BREAST are within error of each other in surviving fraction: 0.902 ± 0.061 for the first, 0.888 ± 0.023 for the second.

MDAMB361 BREAST and MDAMB436 BREAST are within error of each other in surviving fraction: 0.866 ± 0.021 for the first, 0.915 ± 0.031 for the second.

MDAMB468 BREAST and MFM223 BREAST are the same in surviving fraction: 1.03 ± 0.064 for the first, 1.03 ± 0.064 for the second.

First: MG63 BONE
Second: MHM BONE
The surviving fraction of the first is lower: 0.868 ± 0.034 for the first, 0.985 ± 0.044 for the second.

NCIH441 LUNG and NOS1 BONE are within error of each other in surviving fraction: 1 ± 0.13 for the first, 1.09 ± 0.061 for the second.

NY BONE and OS25HAL BONE are within error of each other in surviving fraction: 1.02 ± 0.068 for the first, 0.982 ± 0.029 for the second.

First: OSHN BONE
Second: RDES SOFT TISSUE
The surviving fraction of the first is lower: 1.08 ± 0.032 for the first, 1.57 ± 0.2 for the second.

SCC47 HEADNECK and SCC90 HEADNECK are within error of each other in surviving fraction: 1.04 ± 0.048 for the first, 1.13 ± 0.13 for the second.

SG27 HEADNECK and SG28 HEADNECK are within error of each other in surviving fraction: 1.1 ± 0.33 for the first, 1.07 ± 0.051 for the second.

Going from SG31 HEADNECK to SG32 HEADNECK, the surviving fraction falls from 1.14 ± 0.19 to 0.721 ± 0.03.

SG43 HEADNECK and SIHA CERVIX are within error of each other in surviving fraction: 0.766 ± 0.28 for the first, 1.02 ± 0.067 for the second.

SJSA1 BONE and SKBR3 BREAST are within error of each other in surviving fraction: 0.88 ± 0.036 for the first, 0.855 ± 0.067 for the second.

Going from SNU475 LIVER to SUM44 BREAST, the surviving fraction rises from 0.917 ± 0.04 to 1.086 ± 0.0082.

SUM149.B1*.S BREAST and SUM159 BREAST are within error of each other in surviving fraction: 1.08 ± 0.021 for the first, 0.925 ± 0.28 for the second.

First: SYO1 SYNOVIAL
Second: T47D BREAST
The surviving fraction of the first is lower: 0.706 ± 0.055 for the first, 1.11 ± 0.028 for the second.

Compared with U2OS BONE, VCAP PROSTATE is lower in surviving fraction: 0.981 ± 0.062 for the first, 0.773 ± 0.0044 for the second.

Compared with VP229 BREAST, YAMATO SYNOVIAL is higher in surviving fraction: 0.776 ± 0.075 for the first, 0.935 ± 0.056 for the second.
